Marks after values point to notes of the source that are not given here.
Experiments:
[1] = test system: experimental autoimmune encephalitis (EAE) model; test: Experimental autoimmune encephalitis (EAE) model in Lewis rats; format: in vivo; details: for EAE incidence (%): from Day 8
Description: Compound A was tested in the experimental autoimmune encephalitis (EAE) model in Lewis rats. EAE was induced by MBP69-88/CFA immunization and pertussis toxin injection in Lewis rats (Hashim, et al., 1986, J Neurosci Res.; 16(3):467-78). Compound A was prepared as an oral suspension and dosed orally, twice per day (BID) at three doses, 7.5 and 15 and 30 mg/kg for total daily doses of 15, 30 and 60 mg/kg. The efficacy was compared to animals that received the positive control FTY720 (also known as fingolimod; a compound approved for use in humans) dosed once per day at a dose of 0.5 mg/kg.

Human PKC delta = Human PKC delta (Homo sapiens, UniProt Q05655); test: In vitro PKC inhibition assay, PKC delta; format: biochemical
Chain of Human PKC delta (Q05655 whole entry): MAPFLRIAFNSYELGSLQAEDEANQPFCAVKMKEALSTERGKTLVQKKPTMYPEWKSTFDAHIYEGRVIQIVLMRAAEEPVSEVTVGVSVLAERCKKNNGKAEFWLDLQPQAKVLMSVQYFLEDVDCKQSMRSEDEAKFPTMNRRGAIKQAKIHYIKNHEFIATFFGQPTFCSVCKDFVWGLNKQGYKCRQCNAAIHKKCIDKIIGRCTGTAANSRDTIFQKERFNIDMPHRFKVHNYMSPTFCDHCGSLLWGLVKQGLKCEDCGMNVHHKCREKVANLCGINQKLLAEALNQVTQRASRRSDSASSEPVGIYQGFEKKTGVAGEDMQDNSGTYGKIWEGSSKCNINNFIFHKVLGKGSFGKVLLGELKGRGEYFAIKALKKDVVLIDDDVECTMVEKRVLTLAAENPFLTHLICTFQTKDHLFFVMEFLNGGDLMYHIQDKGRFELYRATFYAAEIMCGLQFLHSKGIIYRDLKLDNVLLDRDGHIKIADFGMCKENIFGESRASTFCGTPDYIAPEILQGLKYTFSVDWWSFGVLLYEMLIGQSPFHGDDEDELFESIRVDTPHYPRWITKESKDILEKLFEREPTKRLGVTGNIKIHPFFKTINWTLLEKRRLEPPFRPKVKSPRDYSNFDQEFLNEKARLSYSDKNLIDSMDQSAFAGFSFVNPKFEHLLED
Excerpt: (§1) The methods for these determinations have been described (Grant, et al. 2010, Eur J Pharmacol. 627:16-25).

[2] = test system: rat model of encephalitis; test: rat model of encephalitis; format: in vivo; details: FIG. 11
[3] = test system: experimental autoimmune uveitis; test: Lewis rat model of experimental autoimmune uveitis; format: in vivo; details: oral, once per day, 10 and 20 mg/kg
Description: The efficacy was compared to animals that received the positive control cyclosporine dosed at 25 mg/kg. […] Efficacy in the model was assessed by clinical grading and by assessment of the sections of the eyes prepared for histology at the completion of the experiment.

[4] = treatment of increased spleen weight; format: in vivo; details: FIG. 10
[5] = test system: MRL/lpr mouse model of lupus; test: MRL/lpr mouse model of lupus; format: in vivo, Female MRL/MpJ-Tnfrsf6lpr/J mice
Description: Compound A was tested for efficacy in the MRL/lpr mouse model of lupus (Shlomchik M J, et al, 1994, J Exp Med 180:1295-1306; Cohen P L and Eisenberg R. A. 1991, Annu Rev Immunol, 9:243-69; Honigberg, L. A., et al., 2010, Proc Natl Acad Sci USA. 107:13075-80). Female MRL/MpJ-Tnfrsf6lpr/J mice of 8-9 weeks of age were used in the study. When the mice reached 12 weeks of age, they were randomized by animal body weight into one of the treatment groups or an untreated control group. Treatments was initiated after randomization and continued for 12 weeks. Starting on study week 1, and then every week thereafter, urine from each animal was tested for proteinuria using the Clinitech Multistick test strip (Bayer). The animals were observed daily for significant clinical signs, moribundity and mortality. Scoring of lymphadenopathy (cervical, brachial, and inguinal) for all animals was recorded every week once lesions become apparent in 50% of the animals in vehicle-treated group.
Compound A was prepared as an oral suspension. Initial dosing was completed at two dose levels, 60 and 90 mg/kg, BID for a total dose of 120 and 180 mg/kg/day. […] Dosing for the final 8 weeks was at 180 and 240 mg/kg/day.

MRL/lpr lupus model = test: MRL/lpr lupus model; format: in vivo
[6] = Separate pharmacokinetics experiments in mice; format: in vivo; details: 60 mg/kg dose, oral suspension
Interleukin-8 release = test: Interleukin-8 release; format: cell-based
Excerpt: as §1

PKCβ = PKCβ (Homo sapiens, UniProt P05771); test: pSHP2 (PKCβ cell assay); format: cell-based
Chain of PKCβ (P05771 whole entry, species assumed): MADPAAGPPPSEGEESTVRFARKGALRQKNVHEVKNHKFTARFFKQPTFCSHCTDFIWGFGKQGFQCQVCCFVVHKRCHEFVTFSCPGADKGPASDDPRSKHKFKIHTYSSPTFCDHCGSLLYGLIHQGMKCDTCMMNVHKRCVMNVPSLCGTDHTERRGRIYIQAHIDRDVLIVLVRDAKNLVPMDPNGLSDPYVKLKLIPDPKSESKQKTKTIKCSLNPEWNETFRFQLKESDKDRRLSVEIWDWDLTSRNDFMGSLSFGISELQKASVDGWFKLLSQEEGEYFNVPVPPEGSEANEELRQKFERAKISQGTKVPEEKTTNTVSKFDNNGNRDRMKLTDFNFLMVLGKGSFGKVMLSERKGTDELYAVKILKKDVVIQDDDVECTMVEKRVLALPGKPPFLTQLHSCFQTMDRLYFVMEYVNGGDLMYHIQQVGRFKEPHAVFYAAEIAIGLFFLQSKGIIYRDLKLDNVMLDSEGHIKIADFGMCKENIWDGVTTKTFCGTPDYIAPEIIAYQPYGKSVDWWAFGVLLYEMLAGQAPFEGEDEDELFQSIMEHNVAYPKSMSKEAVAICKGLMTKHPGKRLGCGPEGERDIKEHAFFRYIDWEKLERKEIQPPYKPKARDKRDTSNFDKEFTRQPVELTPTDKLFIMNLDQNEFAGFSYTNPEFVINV

[7] = 120 mg/kg p.o. BID (60 mg/kg BID for the initial 4 weeks)
[8] = both doses (180 and 240 mg/kg/day for the final 8 weeks)

CCCCCCCCc1ccc(CCC(N)(CO)CO)cc1 [FTY720, fingolimod, reference compound]
Mean day of onset +/− SEM (sick rats) ([1]; 0.5 mg/kg p.o. QD): 8.0 +/− 0.3
Median day of onset (all rats) ([1]; 0.5 mg/kg p.o. QD): 8.0
EAE incidence (%) ([1]; 0.5 mg/kg p.o. QD): 87.5%

Cc1ncc(F)c(Nc2n[nH]c3c2CN(C(=O)N2C[C@@H](C)N(CC4CCOCC4)C[C@@H]2C)C3(C)C)n1 [compound A, 5-{[(2S,5R)-2,5-dimethyl-4-(tetrahydro-2H-pyran-4-ylmethyl)piperazin-1-yl]carbonyl}-N-(5-fluoro-2-methylpyrimidin-4-yl)-6,6-dimethyl-1,4,5,6-tetrahydropyrrolo[3,4-c]pyrazol-3-amine]
Inhibition of PKC delta (in words) (Human PKC delta): does not significantly inhibit
efficacy in a rat model of encephalitis [2]: efficacy
Reduction in clinical scores (FIG. 12) [3]: greater than 50%
Reduction in histopathological scores (FIG. 13) [3]: greater than 75%
increased spleen weight [4]: efficacy
BUN/Creatinine ([5]; 90 mg/kg p.o. BID): 163.9
Creatinine ([5]; 90 mg/kg p.o. BID): 0.26
BUN ([5]; 90 mg/kg p.o. BID, 12 weeks of treatment): 52.4 mg/dL
BUN [5, 7]: 29.5 mg/dL
BUN/Creatinine [5, 7]: 147.7
Creatinine [5, 7]: 0.20
Lymphadenopathy score (FIG. 8) [5, 8]: reduction
Mean absolute spleen weight (FIG. 9) [5, 8]: reduction
Mean lymph node weight (FIG. 10) [5, 8]: reduction
Protein in the urine (FIG. 7) [5, 8]: significant reduction
Mean day of onset +/− SEM (sick rats) ([1]; 7.5 mg/kg p.o. BID): 9.0 +/− 0.5
Median day of onset (all rats) ([1]; 7.5 mg/kg p.o. BID): 9.0
EAE incidence (%) ([1]; 7.5 mg/kg p.o. BID): 100.0%
Mean day of onset +/− SEM (sick rats) ([1]; 15 mg/kg p.o. BID): 8.5 +/− 0.4
Median day of onset (all rats) ([1]; 15 mg/kg p.o. BID): 8.0
EAE incidence (%) ([1]; 15 mg/kg p.o. BID): 100.0%
Mean day of onset +/− SEM (sick rats) ([1]; 30 mg/kg p.o. BID): 9.0 +/− 0.9
Median day of onset (all rats) ([1]; 30 mg/kg p.o. BID): 13.5
EAE incidence (%) ([1]; 30 mg/kg p.o. BID, p<0.05 vs. vehicle): 50.0%*
Clinical score in the EAE model ([1]; 7.5, 15 and 30 mg/kg BID): dose-dependent decrease
End EAE severity compared to the vehicle control group (FIG. 11) ([1]; 15 and 30 mg/kg BID): significantly reduced
Maximum EAE severity compared to the vehicle control group (FIG. 11) ([1]; 15 and 30 mg/kg BID): significantly reduced
Clinical score compared with fingolimod ([1]; highest dose employed (30 mg/kg BID) vs fingolimod 0.5 mg/kg QD): appeared superior to fingolimod
urine score (MRL/lpr lupus model; FIG. 7): reducing urine score
lymphadenopathy (MRL/lpr lupus model; FIG. 8): reducing lymphadenopathy
splenomegaly (MRL/lpr lupus model; FIG. 9): reducing splenomegaly
Exposure of compound A in mice [6]: unexpectedly low and insufficient exposure
IC50 (Interleukin-8 release): 39 nM
IC50 (PKCβ): 9.8 nM

— patent publication US20180318300A1, “TREATMENT OF AUTOIMMUNE DISEASE” (MingSight Pharmaceuticals, Inc., priority 2015, published 2018)
